This is an account of results in PubChem BioAssay (NCI).

“And” between values parts separate entries of the source, which are not always exact repeats. Equal entries are not always repeated.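 Results reflect a 48-hour exposure of cells in 96-well plates to compound at five concentrations. GI50 marks 50% less growth. TGI marks complete inhibition of growth.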

Holding throughout (assay): growth of human tumour cells (NCI), 48 h
The test system of test [1] is NCI-H23 lung.
In test [2] the test system is HCC-2998 colon.
For test [3], the system named is A498 renal.
Test [4] has as its system NCI-H226 lung.
For test [5], the system named is SF-268 CNS.
Test [6] deals with HL-60(TB) leukemia.
Test [7] relates to DU-145 prostate.
The test system of test [8] is LOX IMVI melanoma.
Test [9] deals with CAKI-1 renal.
The test system of test [10] is MALME-3M melanoma.

Regarding `CC1=C2C(=C[C@@](C)(CO)[C@@H]2OC(=O)N(C)CCN(C)C(=O)OC(C)(C)C)C(=O)[C@](C)(O)C12CC2`, the GI50 in test [1] is 2.08 µM; in test [2], 8.3 µM; in [3], 8.8 µM; in test [4], 11.7 µM; in test [5], 1.78 µM; in test [6], 2.3 µM. In addition, the GI50 in test [7] was 1.78 µM; in test [8], 12.2 µM. Moreover, the TGI in test [1] was 15.9 µM; in test [2], 26.2 µM; in test [3], 20.1 µM; in test [4], 34.7 µM; in [5] it was 18.7 µM; in [6], 46.4 µM. Further, the results for the TGI in test [7] and in [8] were 32.4 µM and greater than 50 µM, respectively.
Consider `Oc1cccc(Nc2nc3ccccc3c3occc23)c1`, for which the GI50 in test [9] was 2.04 µM; in [2] it was 2.67 µM; in test [5], 4.39 µM; in test [6], 5.22 µM; in test [7] it was 12.2 µM; in test [8] it was 3.25 µM. In addition, the TGI was 6.65 µM in [9]; 11.3 µM in [2]; 17.5 µM in test [5]; 61.7 µM in test [6]; 24.6 µM in [7]; 22.4 µM in test [8].
Take `O=C1OCC2=C1C(c1cccc(F)c1)c1cc3c(cc1N2CCO)OCO3` (stereo not given): the GI50 was 1.24 µM in test [9]; 3.96 µM in test [1]; 7.06 µM in [2]; 1.11 µM in test [3]; greater than 50 µM in [4]; 3.2 µM in test [5]. Besides, the GI50 in [7] is 2.71 µM; in test [8] it was 2.35 µM. Also, the TGI was greater than 50 µM in [9]; greater than 50 µM in test [1]; greater than 50 µM in test [2]; 4.87 µM in test [3]; greater than 50 µM in [4]; greater than 50 µM in [5]. In addition, the TGI in test [7] and in test [8] was greater than 50 µM each time.
With `CN1CCN(C(=S)N(C)C(=O)c2ccco2)CC1`, the TGI in test [1], in [2], in test [4], in [7], in test [10] and in [8] was greater than 100 µM in each case.
On to `CCSCCCSCCSCC`, for which the TGI in test [1], in test [2], in test [5], in test [6], in test [7] and in [8] was greater than 100 µM throughout.
Regarding `O=S(=O)(/N=c1\scc(-c2ccccc2)n1-c1ccccc1)c1ccc(N2N=C3c4ccccc4CC3C2c2ccc(Cl)cc2)cc1` (stereo not given), the GI50 was 46.4 µM in [9]; 21 µM in test [1]; 79.8 µM in test [3]; 94.6 µM in test [4]; greater than 100 µM in test [5]; 29.6 µM in [6]. The GI50 in test [7] was 54.3 µM; in [8] it was 21.5 µM. Further, the TGI in test [9] is greater than 100 µM; in [1] it was 51.3 µM; in test [3], greater than 100 µM; in test [4], greater than 100 µM; in test [5], greater than 100 µM; in test [6] it was 69 µM. For the same molecule, the values for the TGI in test [7] and in [8] were greater than 100 µM and 43.5 µM, respectively.
Consider `CCOC(=O)Oc1c(OC)cc(C(=O)c2ccc(OC)c(O)c2OC)cc1OC`, for which the GI50 in test [9] is 1.81 µM; in test [1], 2.29 µM; in test [2] it was 2.31 µM; in test [3], 3.19 µM; in test [4], 4.56 µM; in test [5], 10.7 µM. The figures for the GI50 in [7], in test [10] and in test [8] were 0.885 µM, 0.686 µM and 0.557 µM, respectively. Further, the TGI is greater than 100 µM in test [9]; greater than 100 µM in [1]; greater than 100 µM in test [2]; 17 µM in test [3]; 40.7 µM in test [4]; greater than 100 µM in test [5]. The TGI in test [7], in test [10] and in test [8] was greater than 100 µM each time.
As to `Cc1ccc(S(=O)(=O)SC/C=C\CSS(=O)(=O)c2ccc(C)cc2)cc1`, the TGI in [9] is 88.9 µM and 45.7 µM; in test [1], 73.9 µM and 34.7 µM; in [2], greater than 100 µM; in test [3], greater than 100 µM; in test [4], 71.5 µM and 55.2 µM; in [5], > 73.2 µM and 74.4 µM. Further, the TGI in [7] was greater than 66.9 µM; in test [10] it was > 94.9 µM and 43.8 µM; in test [8], 33.2 µM and 29.1 µM. In addition, the GI50 in test [8] was 4.68 µM and 13.5 µM.
`O=C1C=CC(=O)c2c1ccc1c3ccccc3n(Cc3ccc([N+](=O)[O-])cc3)c21`: the TGI in test [9] is greater than 100 µM; in test [1], greater than 100 µM; in test [2], greater than 100 µM; in test [4], greater than 100 µM; in [5] it was greater than 100 µM; in test [6], 33.2 µM. The molecule also registered a TGI in [7] greater than 100 µM.
For the molecule `O=[N+]([O-])c1ccccc1N=Nc1c(O)[nH]c2cccc(C(F)(F)F)c12`, the TGI is greater than 100 µM in test [9]; 88 µM in test [1]; greater than 100 µM in [2]; greater than 100 µM in test [3]; greater than 100 µM in test [4]; greater than 100 µM in test [5]. In addition, the TGI in test [6], in test [7] and in test [8] was greater than 100 µM in each case.
For `COc1cccc(-c2nc3cc(NC(=O)c4ccc(Cl)c(C#N)c4)ccc3o2)c1`, the GI50 in test [9] is 23.3 µM; in test [1], 1.69 µM; in [4], 6.49 µM; in test [6] it was greater than 100 µM; in [7], 2.36 µM; in [8] it was 3.7 µM. Besides, the TGI in [9] was greater than 100 µM; in test [1] it was 4.15 µM; in test [4], greater than 100 µM; in test [6] it was greater than 100 µM; in [7], greater than 100 µM; in test [8], greater than 100 µM.
Turning to `COc1cc(C)ccc1C(=O)c1ccc(C)cc1OC`, the GI50 in [9] is 2.3 µM; in test [1], 6.31 µM; in test [2], 2.87 µM; in test [3], 1.24 µM; in test [4], 4.45 µM; in [5] it was 7.92 µM. Besides, the figures for the GI50 in test [7], in [10] and in test [8] were 3.45 µM, 4.67 µM and 7.88 µM, respectively. In addition, the TGI in test [9] is 92.3 µM; in [1] it was greater than 100 µM; in test [2] it was 35.9 µM; in [3], 39.6 µM; in [4], 72.7 µM; in [5] it was greater than 100 µM. For the same molecule, the TGI in test [7] was 83.6 µM; in [10] it was greater than 100 µM; in test [8], greater than 100 µM.
With `O=C(Oc1cccnc1)c1cccnc1Nc1ccnc(C(F)(F)F)c1`, the GI50 in test [9] was 4.73 µM; in [1], 6.38 µM; in [2] it was 16.8 µM; in test [3], 19.6 µM; in test [4], 12.3 µM; in test [5], 5.63 µM. Also, the GI50 was 15 µM in [7], 13 µM in test [10] and 8.16 µM in test [8]. Further, the TGI was 30.2 µM in [9]; greater than 100 µM in test [1]; 35.3 µM in [2]; 41 µM in test [3]; 71.4 µM in test [4]; greater than 100 µM in [5]. Also, the TGI in test [7] was 42.1 µM; in test [10], 69.8 µM; in test [8], 26 µM.
`Clc1ccc(-c2cn3ccnc3c(-c3ccc(Cl)cc3)n2)cc1`: the GI50 was 4.23 µM in [9]; 24.3 µM in test [1]; 30.7 µM in test [3]; 40.8 µM in test [4]; 15.4 µM in test [5]; 0.954 µM in test [6]. Further, the GI50 is 25.3 µM in test [7] and 12.7 µM in test [8]. Further, the TGI in [9] was 46 µM; in test [1], 80.1 µM; in test [3], 77.2 µM; in test [4], greater than 100 µM; in test [5] it was greater than 100 µM; in test [6], 19 µM. Moreover, the TGI is greater than 100 µM in [7] and 31.5 µM in [8].
Consider `N#CC(C#N)=C/C=C(\Cl)c1ccc(Cl)cc1`, for which the GI50 is 3.78 µM in [9]; 2.66 µM in test [1]; 6.75 µM in test [2]; 20.5 µM in [3]; 7.69 µM in test [4]; 14.1 µM in [5]. In addition, the figures for the GI50 in test [7], in [10] and in test [8] were 11.6 µM, 2.16 µM and 1.18 µM, respectively. In addition, the TGI in [9] worked out at 12.6 µM; in test [1], 9.04 µM; in test [2], 19.9 µM; in [3], 38.6 µM; in test [4], 33.9 µM; in test [5], 50.5 µM. For the same molecule, the TGI is 29.7 µM in [7] and 7.63 µM in test [10].
For the molecule `c1ccc(C2ONC3=NCCN32)cc1` (stereo not given), the GI50 in [9] is 36.1 µM; in test [1], 66.2 µM; in [2], 58.1 µM; in [3] it was 1.97 µM; in [4], 25.3 µM; in test [5], 54.3 µM. Moreover, the GI50 was 62.1 µM in test [7], 62.9 µM in [10] and 11.3 µM in test [8]. For the same molecule, the TGI in test [9] is greater than 100 µM; in test [1], greater than 100 µM; in [2], greater than 100 µM; in test [3] it was 9.02 µM; in [4], 78.6 µM; in test [5], greater than 100 µM. The TGI in test [7], in [10] and in test [8] was greater than 100 µM each time.
